# Source: PubChem BioAssay (NCI)
#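 1) Cells in 96-well plates. 2) Compound, 48 h, 5 concentrations. 3) Linear interpolation between surrounding doses. 4) Unreached endpoint = highest concentration. Here, GI50 denotes the concentration required for 50% inhibition of growth. TGI marks complete inhibition of growth.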
# Legend:
# Assay in all cases: NCI-60 cell line screen, 48 h
# [1] = tested on: 786-0 renal
# [2] = tested on: A498 renal
# [3] = tested on: A549 NSCLC
# [4] = tested on: ACHN renal
# [5] = tested on: BT-549 breast
# [6] = tested on: CAKI-1 renal
# [7] = tested on: CCRF-CEM leukemia
# [8] = tested on: COLO 205 colon
# [9] = tested on: DU-145 prostate
# [10] = tested on: EKVX NSCLC
# [11] = tested on: HCC-2998 colon
# [12] = tested on: HCT-116 colon
# [13] = tested on: HCT-15 colon
# [14] = tested on: HL-60(TB) leukemia
# [15] = tested on: HOP-62 NSCLC
# [16] = tested on: HOP-92 NSCLC
# [17] = tested on: HS 578T breast
# [18] = tested on: HT29 colon
# [19] = tested on: IGROV1 ovarian
# [20] = tested on: K-562 leukemia
# [21] = tested on: KM12 colon
# [22] = tested on: LOX IMVI melanoma
# [23] = tested on: M14 melanoma
# [24] = tested on: MALME-3M melanoma
# [25] = tested on: MCF7 breast
# [26] = tested on: MDA-MB-231 breast
# [27] = tested on: MDA-MB-435
# [28] = tested on: MOLT-4 leukemia
# [29] = tested on: NCI-H226 lung
# [30] = tested on: NCI-H23 lung
# [31] = tested on: NCI-H460 lung
# [32] = tested on: NCI-H522 lung
# [33] = tested on: NCI/ADR-RES ovarian
# [34] = tested on: OVCAR-3 ovarian
# [35] = tested on: OVCAR-4 ovarian
# [36] = tested on: OVCAR-5 ovarian
# [37] = tested on: OVCAR-8 ovarian
# [38] = tested on: PC-3 prostate
# [39] = tested on: RPMI-8226 leukemia
# [40] = tested on: RXF 393 renal
# [41] = tested on: SF-268 CNS
# [42] = tested on: SF-295 CNS
# [43] = tested on: SF-539 CNS
# [44] = tested on: SK-MEL-2 melanoma
# [45] = tested on: SK-MEL-28 melanoma
# [46] = tested on: SK-MEL-5 melanoma
# [47] = tested on: SK-OV-3 ovarian
# [48] = tested on: SN12C renal
# [49] = tested on: SNB-19 CNS
# [50] = tested on: SNB-75 CNS
# [51] = tested on: SR leukemia
# [52] = tested on: SW-620 colon
# [53] = tested on: T-47D breast
# [54] = tested on: TK-10 renal
# [55] = tested on: U251 CNS
# [56] = tested on: UACC-257 melanoma
# [57] = tested on: UACC-62 melanoma
# [58] = tested on: UO-31 renal
smiles,measurement,setting,value
N#Cc1c(-c2ccc(Cl)cc2)cc(-c2cc(O)ccc2O)nc1N,GI50,[1],2060 nM
same,TGI,[1],6490 nM
same,GI50,[2],1410 nM
same,TGI,[2],6140 nM
same,GI50,[3],2330 nM
same,TGI,[3],13800 nM
same,GI50,[4],1890 nM
same,TGI,[4],12200 nM
same,GI50,[5],3410 nM
same,TGI,[5],31200 nM
same,GI50,[6],2980 nM
same,TGI,[6],19100 nM
same,GI50,[7],1230 nM
same,TGI,[7],> 100000 nM
same,GI50,[8],22400 nM
same,TGI,[8],> 100000 nM
same,GI50,[9],1250 nM
same,TGI,[9],10500 nM
same,GI50,[10],2770 nM
same,TGI,[10],> 62900 nM
same,GI50,[11],1170 nM
same,TGI,[11],3460 nM
same,GI50,[12],553 nM
same,TGI,[12],> 34000 nM
same,GI50,[13],4740 nM
same,TGI,[13],> 52800 nM
same,GI50,[14],7640 nM
same,TGI,[14],> 87900 nM
same,GI50,[15],908 nM
same,TGI,[15],3500 nM
same,GI50,[16],2390 nM
same,TGI,[16],10800 nM
same,GI50,[17],1730 nM
same,TGI,[17],> 100000 nM
same,GI50,[18],11700 nM
same,TGI,[18],> 53300 nM
same,GI50,[19],1240 nM
same,TGI,[19],4770 nM
same,GI50,[20],402 nM
same,TGI,[20],> 100000 nM
same,GI50,[21],2000 nM
same,TGI,[21],14900 nM
same,GI50,[22],558 nM
same,TGI,[22],1890 nM
same,GI50,[23],1230 nM
same,TGI,[23],5630 nM
same,GI50,[24],1540 nM
same,TGI,[24],4270 nM
same,GI50,[25],566 nM
same,TGI,[25],> 32800 nM
same,GI50,[26],1250 nM
same,TGI,[26],5090 nM
same,GI50,[27],686 nM
same,TGI,[27],2740 nM
same,GI50,[28],666 nM
same,TGI,[28],5020 nM
same,GI50,[29],2540 nM
same,TGI,[29],9870 nM
same,GI50,[30],1220 nM
same,TGI,[30],5280 nM
same,GI50,[31],935 nM
same,TGI,[31],4870 nM
same,GI50,[32],606 nM
same,TGI,[32],2720 nM
same,GI50,[33],8800 nM
same,TGI,[33],> 100000 nM
same,GI50,[34],472 nM
same,TGI,[34],1510 nM
same,GI50,[35],576 nM
same,TGI,[35],2200 nM
same,GI50,[36],5070 nM
same,TGI,[36],25700 nM
same,GI50,[37],1370 nM
same,TGI,[37],4930 nM
same,GI50,[38],1480 nM
same,TGI,[38],> 33900 nM
same,GI50,[39],3200 nM
same,TGI,[39],> 100000 nM
same,GI50,[40],835 nM
same,TGI,[40],2720 nM
same,GI50,[41],825 nM
same,TGI,[41],7150 nM
same,GI50,[42],2940 nM
same,TGI,[42],9770 nM
same,GI50,[43],981 nM
same,TGI,[43],3290 nM
same,GI50,[44],2600 nM
same,TGI,[44],9160 nM
same,GI50,[45],1760 nM
same,TGI,[45],4230 nM
same,GI50,[46],853 nM
same,TGI,[46],2400 nM
same,GI50,[47],2420 nM
same,TGI,[47],6340 nM
same,GI50,[48],1170 nM
same,TGI,[48],5630 nM
same,GI50,[49],1290 nM
same,TGI,[49],> 45300 nM
same,GI50,[50],914 nM
same,TGI,[50],4040 nM
same,GI50,[51],605 nM
same,TGI,[51],> 100000 nM
same,GI50,[52],773 nM
same,TGI,[52],4680 nM
same,GI50,[53],854 nM
same,TGI,[53],5640 nM
same,GI50,[54],4080 nM
same,TGI,[54],32800 nM
same,GI50,[55],669 nM
same,TGI,[55],2410 nM
same,GI50,[56],1830 nM
same,TGI,[56],7440 nM
same,GI50,[57],1450 nM
same,TGI,[57],3990 nM
same,GI50,[58],5120 nM
same,TGI,[58],23600 nM
